Active and inactive are the calls of the source. The calls are words filed in the database; no cut-off is given here.
Assays:
L6 [1] = assay: Stimulation of glucose consumption in rat L6 cells at 20 uM incubated for 12 hrs by glucose assay reagent based glucose oxidase method relative to untreated control; assay type: functional
L6 [2] = assay: Activation of AMPKalpha in rat L6 cells assessed as increase in AMPKalpha Thr172 phosphorylation incubated for 1 hrs by Western blot method; assay type: cell-based
L6 [3] = assay: Inhibition of oxygen consumption rate in isolated mitochondria from rat L6 cells; assay type: functional
[4] = biological target: T1, AMP-activated protein kinase (AMPK) alpha-1/beta-1/gamma-1 (Homo sapiens) (UniProt P54619+Q9Y478+Q13131); assay: Activation of human recombinant AMPKalpha1beta1gamma1 expressed in Escherichia coli at 20 uM incubated for 1 hr using serine/threonine kinase substrate
L6 [5] = assay: Inhibition of oxygen consumption rate in rat L6 cells; assay type: functional, cell-based
[6] = biological target: T2, AMP-activated protein kinase alpha-1/beta-2/gamma-3 (Homo sapiens) (UniProt O43741+Q13131+Q9UGI9); assay: Activation of human recombinant AMPKalpha1beta2gamma3 expressed in Escherichia coli at 20 uM incubated for 1 hr using serine/threonine kinase substrate
Hepatocyte [7] = assay: Inhibition of glucose production in Sprague-Dawley rat primary hepatocytes grown under gluconeogenic medium incubated for 6 hrs by glucose assay reagent based glucose oxidase method (reference value: 100%); assay type: functional, cell-based
[8] = biological target: T3, AMPK alpha2/beta1/gamma1 (Homo sapiens) (UniProt P54646+P54619+Q9Y478); assay: Activation of human recombinant AMPKalpha2beta1gamma1 expressed in Escherichia coli at 20 uM incubated for 1 hr using serine/threonine kinase substrate
[9] = biological target: T4, AMPK alpha1/beta1/gamma2 (Homo sapiens) (UniProt Q9UGJ0+Q9Y478+Q13131); assay: Activation of human recombinant AMPKalpha1beta1gamma2 expressed in Escherichia coli at 20 uM incubated for 1 hr using serine/threonine kinase substrate
[10] = Inhibition of oxygen consumption rate in isolated mitochondria from rat L6 cells assessed as oxygen consumption level at 10 uM (reference value: 100 +/- 1.9%); assay type: functional; parameters: scale not given: the % may be the effect or the level left
[11] = biological target: T5, AMP-activated protein kinase alpha-2/beta-1/gamma-3 (Homo sapiens) (UniProt P54646+Q9Y478+Q9UGI9); assay: Activation of human recombinant AMPKalpha2beta1gamma3 expressed in Escherichia coli at 20 uM incubated for 1 hr using serine/threonine kinase substrate
L6 [12] = assay: Inhibition of oxygen consumption rate in rat L6 cells assessed as oxygen consumption level at 20 uM (reference value: 100 +/- 1.6%); assay type: functional; parameters: scale not given: the % may be the effect or the level left
Hepatocyte [13] = assay: Inhibition of glucose production in Sprague-Dawley rat primary hepatocytes grown under gluconeogenic medium assessed as glucose production level at 10 uM incubated for 6 hrs by glucose assay reagent based glucose oxidase method (reference value: 100%); assay type: functional; parameters: scale not given: the % may be the effect or the level left
L6 [14] = assay: Inhibition of oxygen consumption rate in rat L6 cells assessed as oxygen consumption level at 10 uM (reference value: 100 +/- 1.6%); assay type: functional; parameters: scale not given: the % may be the effect or the level left
L6 [15] = assay: Activation of AMPKalpha in rat L6 cells assessed as increase in ACC phosphorylation incubated for 1 hrs by Western blot method; assay type: cell-based
[16] = biological target: T6, AMPK alpha1/beta2/gamma1 (Homo sapiens) (UniProt O43741+P54619+Q13131); assay: Activation of human recombinant AMPKalpha1beta2gamma1 expressed in Escherichia coli at 20 uM incubated for 1 hr using serine/threonine kinase substrate
Hepatocyte [17] = assay: Inhibition of glucose production in Sprague-Dawley rat primary hepatocytes grown under gluconeogenic medium assessed as glucose production level at 20 uM incubated for 6 hrs by glucose assay reagent based glucose oxidase method (reference value: 100%); assay type: functional; parameters: scale not given: the % may be the effect or the level left
[18] = biological target: T7, AMPK alpha2/beta2/gamma1 (Homo sapiens) (UniProt P54646+O43741+P54619); assay: Activation of human recombinant AMPKalpha2beta2gamma1 expressed in Escherichia coli at 20 uM incubated for 1 hr using serine/threonine kinase substrate
[19] = Inhibition of oxygen consumption rate in isolated mitochondria from rat L6 cells assessed as oxygen consumption level at 1.2 uM (reference value: 100 +/- 1.9%); assay type: functional; parameters: scale not given: the % may be the effect or the level left
Hepatocyte [20] = assay: Inhibition of glucose production in Sprague-Dawley rat primary hepatocytes grown under gluconeogenic medium assessed as glucose production level at 5 uM incubated for 6 hrs by glucose assay reagent based glucose oxidase method (reference value: 100%); assay type: functional; parameters: scale not given: the % may be the effect or the level left
[21] = Inhibition of oxygen consumption rate in isolated mitochondria from rat L6 cells assessed as oxygen consumption level at 5 uM (reference value: 100 +/- 1.9%); assay type: functional; parameters: scale not given: the % may be the effect or the level left
[22] = biological target: T8, AMP-activated protein kinase alpha-2/beta-2/gamma-2 (Homo sapiens) (UniProt P54646+O43741+Q9UGJ0); assay: Activation of human recombinant AMPKalpha2beta2gamma2 expressed in Escherichia coli at 20 uM incubated for 1 hr using serine/threonine kinase substrate
L6 [23] = assay: Inhibition of mitochondrial membranes potential in rat L6 cells assessed as mitochondrial membranes potential level at 20 uM incubated for 40 mins by JC1 dye staining based fluorescence assay (reference value: 100 +/- 2.8%); assay type: functional; parameters: scale not given: the % may be the effect or the level left
[24] = Inhibition of oxygen consumption rate in isolated mitochondria from rat L6 cells assessed as oxygen consumption level at 2.5 uM (reference value: 100 +/- 1.9%); assay type: functional; parameters: scale not given: the % may be the effect or the level left
[25] = biological target: T7, AMPK alpha2/beta2/gamma1 (Homo sapiens); assay: Activation of human recombinant AMPKalpha2beta2gamma1 expressed in Escherichia coli at 50 nM incubated for 1 hr using serine/threonine kinase substrate
[26] = biological target: T5, AMP-activated protein kinase alpha-2/beta-1/gamma-3 (Homo sapiens); assay: Activation of human recombinant AMPKalpha2beta1gamma3 expressed in Escherichia coli at 50 nM incubated for 1 hr using serine/threonine kinase substrate
[27] = biological target: T6, AMPK alpha1/beta2/gamma1 (Homo sapiens); assay: Activation of human recombinant AMPKalpha1beta2gamma1 expressed in Escherichia coli at 50 nM incubated for 1 hr using serine/threonine kinase substrate
[28] = biological target: T3, AMPK alpha2/beta1/gamma1 (Homo sapiens); assay: Activation of human recombinant AMPKalpha2beta1gamma1 expressed in Escherichia coli at 50 nM incubated for 1 hr using serine/threonine kinase substrate
[29] = biological target: T8, AMP-activated protein kinase alpha-2/beta-2/gamma-2 (Homo sapiens); assay: Activation of human recombinant AMPKalpha2beta2gamma2 expressed in Escherichia coli at 50 nM incubated for 1 hr using serine/threonine kinase substrate
[30] = biological target: T4, AMPK alpha1/beta1/gamma2 (Homo sapiens); assay: Activation of human recombinant AMPKalpha1beta1gamma2 expressed in Escherichia coli at 50 nM incubated for 1 hr using serine/threonine kinase substrate
[31] = biological target: T1, AMP-activated protein kinase (AMPK) alpha-1/beta-1/gamma-1 (Homo sapiens); assay: Activation of human recombinant AMPKalpha1beta1gamma1 expressed in Escherichia coli at 50 nM incubated for 1 hr using serine/threonine kinase substrate
[32] = biological target: T2, AMP-activated protein kinase alpha-1/beta-2/gamma-3 (Homo sapiens); assay: Activation of human recombinant AMPKalpha1beta2gamma3 expressed in Escherichia coli at 50 nM incubated for 1 hr using serine/threonine kinase substrate

T4 sequence (Q13131 whole entry partner): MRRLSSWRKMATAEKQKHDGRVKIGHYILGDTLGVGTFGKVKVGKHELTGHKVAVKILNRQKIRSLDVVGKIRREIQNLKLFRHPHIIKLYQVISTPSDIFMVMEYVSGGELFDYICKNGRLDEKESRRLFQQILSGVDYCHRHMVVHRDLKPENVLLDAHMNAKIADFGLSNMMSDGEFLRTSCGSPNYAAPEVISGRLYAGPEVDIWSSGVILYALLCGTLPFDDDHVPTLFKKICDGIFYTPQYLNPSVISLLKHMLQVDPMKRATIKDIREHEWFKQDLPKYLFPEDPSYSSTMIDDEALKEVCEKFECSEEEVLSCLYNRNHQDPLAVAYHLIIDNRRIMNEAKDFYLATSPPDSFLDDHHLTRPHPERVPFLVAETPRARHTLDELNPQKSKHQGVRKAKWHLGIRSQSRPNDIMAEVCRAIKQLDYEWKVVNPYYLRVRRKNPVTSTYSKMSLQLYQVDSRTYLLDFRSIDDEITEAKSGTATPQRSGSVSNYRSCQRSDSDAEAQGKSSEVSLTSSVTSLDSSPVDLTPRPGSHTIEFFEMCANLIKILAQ
T4 sequence (Q9UGJ0 whole entry): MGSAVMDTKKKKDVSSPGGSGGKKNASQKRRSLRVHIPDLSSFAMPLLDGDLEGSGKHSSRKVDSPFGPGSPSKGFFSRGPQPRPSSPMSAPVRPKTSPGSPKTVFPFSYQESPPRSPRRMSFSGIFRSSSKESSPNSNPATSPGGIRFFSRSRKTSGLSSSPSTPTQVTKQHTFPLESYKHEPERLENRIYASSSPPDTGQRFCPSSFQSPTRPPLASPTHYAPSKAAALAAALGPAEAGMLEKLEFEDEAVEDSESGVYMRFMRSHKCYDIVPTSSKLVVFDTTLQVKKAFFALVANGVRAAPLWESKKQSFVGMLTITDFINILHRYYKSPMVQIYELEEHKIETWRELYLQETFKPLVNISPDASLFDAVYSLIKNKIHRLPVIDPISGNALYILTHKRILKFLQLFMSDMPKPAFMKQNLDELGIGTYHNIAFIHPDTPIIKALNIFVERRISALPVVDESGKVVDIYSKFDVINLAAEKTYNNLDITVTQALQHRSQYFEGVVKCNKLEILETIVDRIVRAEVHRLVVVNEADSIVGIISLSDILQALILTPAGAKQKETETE
T4 sequence (Q9Y478 2-270 partner limits assumed): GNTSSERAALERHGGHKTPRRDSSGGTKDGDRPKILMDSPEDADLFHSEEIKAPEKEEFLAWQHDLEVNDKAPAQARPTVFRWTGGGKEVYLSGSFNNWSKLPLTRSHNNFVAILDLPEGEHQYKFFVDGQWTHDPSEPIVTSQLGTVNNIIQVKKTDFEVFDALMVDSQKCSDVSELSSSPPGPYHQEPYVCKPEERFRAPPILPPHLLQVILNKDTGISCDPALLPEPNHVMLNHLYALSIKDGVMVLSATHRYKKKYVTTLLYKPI
T6 sequence (O43741 whole entry, looked up): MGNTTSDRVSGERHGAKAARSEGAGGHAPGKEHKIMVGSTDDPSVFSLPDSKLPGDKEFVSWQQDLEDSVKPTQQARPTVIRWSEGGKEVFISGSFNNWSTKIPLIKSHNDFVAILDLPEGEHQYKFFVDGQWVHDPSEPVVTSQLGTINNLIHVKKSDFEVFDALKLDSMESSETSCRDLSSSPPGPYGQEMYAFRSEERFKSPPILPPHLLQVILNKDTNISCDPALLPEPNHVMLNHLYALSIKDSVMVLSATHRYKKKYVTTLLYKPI
T6 sequence (P54619 whole entry, looked up): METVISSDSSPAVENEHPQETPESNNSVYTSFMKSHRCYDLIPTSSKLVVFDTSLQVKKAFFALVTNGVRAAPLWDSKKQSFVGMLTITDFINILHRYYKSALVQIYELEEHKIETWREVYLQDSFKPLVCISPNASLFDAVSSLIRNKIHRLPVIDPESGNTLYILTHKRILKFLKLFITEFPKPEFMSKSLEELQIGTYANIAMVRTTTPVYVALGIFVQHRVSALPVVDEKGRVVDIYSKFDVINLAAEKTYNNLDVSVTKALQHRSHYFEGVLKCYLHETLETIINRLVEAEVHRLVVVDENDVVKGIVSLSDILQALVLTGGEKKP
T6 sequence (Q13131 whole entry, looked up): as the sequence (Q13131 whole entry partner) above
T8 sequence (O43741 whole entry, looked up): as the sequence (O43741 whole entry, looked up) above
T8 sequence (P54646 whole entry, looked up): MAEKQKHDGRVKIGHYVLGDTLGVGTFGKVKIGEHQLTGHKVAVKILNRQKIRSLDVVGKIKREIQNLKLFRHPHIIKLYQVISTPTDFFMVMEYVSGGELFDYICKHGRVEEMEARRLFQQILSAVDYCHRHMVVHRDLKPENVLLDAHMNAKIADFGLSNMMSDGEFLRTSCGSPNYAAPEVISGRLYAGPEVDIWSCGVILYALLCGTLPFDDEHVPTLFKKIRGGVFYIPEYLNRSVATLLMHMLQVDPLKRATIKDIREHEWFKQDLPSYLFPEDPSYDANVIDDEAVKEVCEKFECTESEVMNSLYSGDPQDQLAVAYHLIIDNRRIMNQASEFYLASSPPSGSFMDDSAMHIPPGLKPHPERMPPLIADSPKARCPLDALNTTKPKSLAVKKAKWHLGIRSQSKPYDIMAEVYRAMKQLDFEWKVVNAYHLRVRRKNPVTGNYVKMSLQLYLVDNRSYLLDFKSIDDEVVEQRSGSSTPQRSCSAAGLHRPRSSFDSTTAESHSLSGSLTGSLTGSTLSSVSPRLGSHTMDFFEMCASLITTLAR
T8 sequence (Q9UGJ0 whole entry, looked up): as the sequence (Q9UGJ0 whole entry) above
T2 sequence (O43741 whole entry, looked up): as the sequence (O43741 whole entry, looked up) above
T2 sequence (Q13131 whole entry, looked up): as the sequence (Q13131 whole entry partner) above
T2 sequence (Q9UGI9 whole entry, looked up): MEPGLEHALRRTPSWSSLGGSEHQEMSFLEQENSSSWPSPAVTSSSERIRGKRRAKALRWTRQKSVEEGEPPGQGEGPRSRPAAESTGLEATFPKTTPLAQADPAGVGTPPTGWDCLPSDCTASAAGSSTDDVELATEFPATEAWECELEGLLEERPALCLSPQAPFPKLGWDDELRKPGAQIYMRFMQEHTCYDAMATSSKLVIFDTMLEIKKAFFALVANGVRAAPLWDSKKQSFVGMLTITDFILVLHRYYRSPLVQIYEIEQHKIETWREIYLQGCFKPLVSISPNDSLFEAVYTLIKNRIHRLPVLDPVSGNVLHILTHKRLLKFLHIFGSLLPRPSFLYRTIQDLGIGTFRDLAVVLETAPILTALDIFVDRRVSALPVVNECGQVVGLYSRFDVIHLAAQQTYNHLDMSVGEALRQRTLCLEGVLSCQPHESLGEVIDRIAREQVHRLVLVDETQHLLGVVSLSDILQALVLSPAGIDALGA
T7 sequence (O43741 whole entry, looked up): as the sequence (O43741 whole entry, looked up) above
T7 sequence (P54619 whole entry, looked up): as the sequence (P54619 whole entry, looked up) above
T7 sequence (P54646 whole entry, looked up): as the sequence (P54646 whole entry, looked up) above
T5 sequence (P54646 whole entry): as the sequence (P54646 whole entry, looked up) above
T5 sequence (Q9UGI9 whole entry partner): as the sequence (Q9UGI9 whole entry, looked up) above
T5 sequence (Q9Y478 2-270 partner limits assumed): as the sequence (Q9Y478 2-270 partner limits assumed) above
T3 sequence (P54619 whole entry partner): as the sequence (P54619 whole entry, looked up) above
T3 sequence (P54646 whole entry): as the sequence (P54646 whole entry, looked up) above
T3 sequence (Q9Y478 2-270 partner limits assumed): as the sequence (Q9Y478 2-270 partner limits assumed) above
T1 sequence (P54619 whole entry): as the sequence (P54619 whole entry, looked up) above
T1 sequence (Q13131 whole entry partner): as the sequence (Q13131 whole entry partner) above
T1 sequence (Q9Y478 2-270 partner limits assumed): as the sequence (Q9Y478 2-270 partner limits assumed) above

For O=C(Cc1ccccc1)Nc1ccc2c(c1)CC1c3ccsc3CCN1C2 (configuration not stated), the Activity (L6 [1]) was 120.4%.

For COc1ccc(OC)c2c1CC1c3ccsc3CCN1C2 (configuration not stated), the Activity (L6 [2]) was “Dose-dependent effect”, the inhibition (L6 [3]) was “Dose-dependent effect” and the Activity [4] was “inactive”. For the same compound, the inhibition (L6 [5]) was “Dose-dependent effect”, the Activity [6] was “inactive” and the inhibition (Hepatocyte [7]) was “Dose-dependent effect”. For the same compound, the Activity [8] was “inactive”, the Activity [9] was “inactive” and the Activity (L6 [1]) was 178.1%. For the same compound, the Activity [10] was 59.2%, the Activity [11] was “inactive” and the Activity (L6 [12]) was 90.4%. For the same compound, the Activity (Hepatocyte [13]) was 46.6%, the Activity (L6 [14]) was 92.9% and the Activity (L6 [15]) was “Dose-dependent effect”. The Activity [16] was “inactive”, the Activity (Hepatocyte [17]) was 26.1% and the Activity [18] was “inactive”. For the same compound, the Activity [19] was 78.9%, the Activity (Hepatocyte [20]) was 56.7% and the Activity [21] was 63.6%. The Activity [22] was “inactive”, the Activity (L6 [23]) was 81.5% and the Activity [24] was 69.3%.

Compound COc1cc2c(cc1OC)CN1CCc3sccc3C1C2 (configuration not stated) has an Activity (L6 [1]) of 114.4%.

COc1ccc2c(c1)CC1c3ccsc3CCN1C2 (configuration not stated) gave an Activity (L6 [1]) of 103.6%.

Compound COc1cc(Cl)c2c(c1O)CN1CCc3sccc3C1C2 (configuration not stated) has an Activity (L6 [1]) of 97.8%.

For Cc1ccc(C)c2c1CC1c3ccsc3CCN1C2 (configuration not stated), the Activity (L6 [1]) was 95.6%.

Compound COc1ccc(OC)c2c1CC1c3cc(CO)sc3CCN1C2 (configuration not stated) has an Activity (L6 [1]) of 109.5%.

In the case of COc1ccc(OC)c2c1CC1c3cc(C(=O)N4CCCC4)sc3CCN1C2 (configuration not stated), the Activity (L6 [1]) is reported as 100.5%.

Work on COc1ccc(OC)c2c1CC1c3cc(CC4CCNCC4)sc3CCN1C2 (configuration not stated) yielded an Activity (L6 [1]) of 103.4%.

With N#Cc1c(O)c2c(-c3ccc(-c4ccccc4O)cc3)csc2[nH]c1=O the Activity [25] was “inactive”, the Activity [26] was “Active” and the Activity [27] was “inactive”. The Activity [28] was “Active”, the Activity [29] was “inactive” and the Activity [30] was “Active”. The Activity [31] was “Active” and the Activity [32] was “inactive”.

With CNC(=O)c1cc2c(s1)CCN1Cc3c(OC)ccc(OC)c3CC21 (configuration not stated) the Activity (L6 [1]) was 113.8%.

COc1ccc(OC)c2c1CC1c3cc(COC(C)=O)sc3CCN1C2 (configuration not stated) showed an Activity (L6 [1]) of 107.6%.

Compound COc1ccc(OC)c2c1CC1c3cc(C(=O)N4CCn5c(nnc5C(F)(F)F)C4)sc3CCN1C2 (configuration not stated) has an Activity (L6 [1]) of 93.9%.

Work on COc1ccc(OC)c2c1CC1c3cc(C(=O)O)sc3CCN1C2 (configuration not stated) yielded an Activity (L6 [1]) of 116%.

Work on COc1ccc(OC)c2c1CC1c3cc(CN4CCOCC4)sc3CCN1C2 (configuration not stated) yielded an Activity (L6 [1]) of 101%.

In the case of COc1ccc(OC)c2c1CC1c3cc(CC4CC4)sc3CCN1C2 (configuration not stated), the inhibition (Hepatocyte [7]) is reported as “Dose-dependent effect”, the Activity (L6 [1]) is reported as 261.7% and the Activity (Hepatocyte [13]) is reported as 62.8%. It also gave an Activity (Hepatocyte [17]) of 45.8%, an Activity (Hepatocyte [20]) of 85.4% and an Activity (L6 [23]) of 86.4%.

Work on COc1cc2c(cc1O)CN1CCc3sccc3C1C2 (configuration not stated) yielded an Activity (L6 [1]) of 105.2%.
